Measurements: ChEMBL document CHEMBL1133235, “Kinetic characterisation of ene-diol-based inhibitors of alpha-amylase” (Bioorg Med Chem Lett, 2000)

Tested on: alpha-amylase (Hordeum vulgare)
Assay: Percent inhibition of Alpha-amylase activity was determined at 5 mM
Settings: malt

- inhibition: 92%
SMILES: O=C(O)/C(O)=C(\O)C(=O)O
